Pest or weed control data for eight compounds are collected here from US10206394B2, “Herbicidal compounds” (Syngenta Participations AG, priority 2014, dated 2019).

Each structure is given as a SMILES string. Like-named read-outs stand apart in the source and are kept apart here.

Holding throughout (experiment): Glasshouse assay for herbicidal activity (pre- and post-emergence), percentage phytotoxicity
Holding throughout (format): in vivo

In assay [1] the test system is Lolium perenne (LOLPE). The note with it: Lolium perenne. How it is done: (§1) Test—Glasshouse Assay for Herbicidal Activity
(§2) Seeds of a variety of monocotyledonous and dicotyledonous test plants are sown in standard soil in pots. The plants are cultivated for one day (for pre-emergence (PRE)) or for about 12 days (for post-emergence (POST)) under controlled conditions in a glasshouse (warm climate species at 24/18° C., cool climate species at 20/16° C., both at day/night; 16 hours light; 65% humidity).
(§3) The test plants are then grown on, in a glasshouse (greenhouse) under controlled conditions (warm climate species at 24/18° C., cool climate species at 20/16° C., both at day/night; 16 hours light; 65% humidity) and are watered twice daily. 15 days after application of the test herbicide (15 DAA) (for post-emergence), and 20 days after application of the test herbicide (20 DAA) (for pre-emergence), the test plants are evaluated visually, and an assessed percentage phytotoxicity score is given for each herbicidal application on each plant species (with 100%=total damage to plant; 0%=no damage to plant).
(§4) The plant species tested are as follows: Alopecurus myosuroides (ALOMY), Avena fatua (AVEFA), Lolium perenne (LOLPE), Echinochloa crus-galli (ECHCG).

Assay [2] deals with Avena fatua (AVEFA). The note with it: Avena fatua. As to the method:
as §1, §2, §3, §4

Assay [3] relates to Alopecurus myosuroides (ALOMY). To be noted: Alopecurus myosuroides. How it is done: as §1, §2, §3, §4
Assay [4] deals with Echinochloa crus-galli (ECHCG). The note with it: Echinochloa crus-galli. As to the method: as §1, §2, §3, §4
Where [5] appears, read: post-emergence, 360 h, 250 g/ha, post-emergence, 15 DAA, visual assessment (100%=total damage, 0%=no damage), read-out: Post-emergence herbicidal activity (percentage phytotoxicity) LOLPE POST.
Setting [6] is: pre-emergence, 480 h, 250 g/ha, pre-emergence, 20 DAA, visual assessment (100%=total damage, 0%=no damage), read-out: Pre-emergence herbicidal activity (percentage phytotoxicity) LOLPE PRE.
[7] abbreviates: post-emergence, 360 h, 250 g/ha, post-emergence, 15 DAA, visual assessment (100%=total damage, 0%=no damage), read-out: Post-emergence herbicidal activity (percentage phytotoxicity) AVEFA POST.
[8] abbreviates: pre-emergence, 480 h, 250 g/ha, pre-emergence, 20 DAA, visual assessment (100%=total damage, 0%=no damage), read-out: Pre-emergence herbicidal activity (percentage phytotoxicity) AVEFA PRE.
The mark [9] stands for this setting: post-emergence, 360 h, 250 g/ha, post-emergence, 15 DAA, visual assessment (100%=total damage, 0%=no damage), read-out: Post-emergence herbicidal activity (percentage phytotoxicity) ALOMY POST.
[10] abbreviates: pre-emergence, 480 h, 250 g/ha, pre-emergence, 20 DAA, visual assessment (100%=total damage, 0%=no damage), read-out: Pre-emergence herbicidal activity (percentage phytotoxicity) ALOMY PRE.
Setting [11] is: post-emergence, 360 h, 250 g/ha, post-emergence, 15 DAA, visual assessment (100%=total damage, 0%=no damage), read-out: Post-emergence herbicidal activity (percentage phytotoxicity) ECHCG POST.
The mark [12] stands for this setting: pre-emergence, 480 h, 250 g/ha, pre-emergence, 20 DAA, visual assessment (100%=total damage, 0%=no damage), read-out: Pre-emergence herbicidal activity (percentage phytotoxicity) ECHCG PRE.
The mark [13] stands for this setting: post-emergence, 360 h, Rate 250 g/ha, post-emergence, assessed visually 15 DAA, 100%=total damage, 0%=no damage, read-out: Post-emergence herbicidal activity (percentage phytotoxicity) LOLPE POST.
[14] abbreviates: pre-emergence, 480 h, Rate 250 g/ha, pre-emergence, assessed visually 20 DAA, 100%=total damage, 0%=no damage, read-out: Pre-emergence herbicidal activity (percentage phytotoxicity) LOLPE PRE.
Setting [15] is: post-emergence, 360 h, Rate 250 g/ha, post-emergence, assessed visually 15 DAA, 100%=total damage, 0%=no damage, read-out: Post-emergence herbicidal activity (percentage phytotoxicity) AVEFA POST.
[16] abbreviates: pre-emergence, 480 h, Rate 250 g/ha, pre-emergence, assessed visually 20 DAA, 100%=total damage, 0%=no damage, read-out: Pre-emergence herbicidal activity (percentage phytotoxicity) AVEFA PRE.
The mark [17] stands for this setting: post-emergence, 360 h, Rate 250 g/ha, post-emergence, assessed visually 15 DAA, 100%=total damage, 0%=no damage, read-out: Post-emergence herbicidal activity (percentage phytotoxicity) ALOMY POST.
The mark [18] stands for this setting: pre-emergence, 480 h, Rate 250 g/ha, pre-emergence, assessed visually 20 DAA, 100%=total damage, 0%=no damage, read-out: Pre-emergence herbicidal activity (percentage phytotoxicity) ALOMY PRE.
Where [19] appears, read: post-emergence, 360 h, Rate 250 g/ha, post-emergence, assessed visually 15 DAA, 100%=total damage, 0%=no damage, read-out: Post-emergence herbicidal activity (percentage phytotoxicity) ECHCG POST.
Where [20] appears, read: pre-emergence, 480 h, Rate 250 g/ha, pre-emergence, assessed visually 20 DAA, 100%=total damage, 0%=no damage, read-out: Pre-emergence herbicidal activity (percentage phytotoxicity) ECHCG PRE.
Setting [21] is: post-emergence, 360 h, POST-emergence, rate 250 g/ha, visual score 15 DAA (100%=total damage, 0%=no damage), read-out: Post-emergence herbicidal activity (percentage phytotoxicity) LOLPE POST.
The mark [22] stands for this setting: pre-emergence, 480 h, PRE-emergence, rate 250 g/ha, visual score 20 DAA (100%=total damage, 0%=no damage), read-out: Pre-emergence herbicidal activity (percentage phytotoxicity) LOLPE PRE.
Where [23] appears, read: post-emergence, 360 h, POST-emergence, rate 250 g/ha, visual score 15 DAA (100%=total damage, 0%=no damage), read-out: Post-emergence herbicidal activity (percentage phytotoxicity) AVEFA POST.
[24] abbreviates: pre-emergence, 480 h, PRE-emergence, rate 250 g/ha, visual score 20 DAA (100%=total damage, 0%=no damage), read-out: Pre-emergence herbicidal activity (percentage phytotoxicity) AVEFA PRE.
The mark [25] stands for this setting: post-emergence, 360 h, POST-emergence, rate 250 g/ha, visual score 15 DAA (100%=total damage, 0%=no damage), read-out: Post-emergence herbicidal activity (percentage phytotoxicity) ALOMY POST.
Where [26] appears, read: pre-emergence, 480 h, PRE-emergence, rate 250 g/ha, visual score 20 DAA (100%=total damage, 0%=no damage), read-out: Pre-emergence herbicidal activity (percentage phytotoxicity) ALOMY PRE.
Where [27] appears, read: post-emergence, 360 h, POST-emergence, rate 250 g/ha, visual score 15 DAA (100%=total damage, 0%=no damage), read-out: Post-emergence herbicidal activity (percentage phytotoxicity) ECHCG POST.
Setting [28] is: pre-emergence, 480 h, PRE-emergence, rate 250 g/ha, visual score 20 DAA (100%=total damage, 0%=no damage), read-out: Pre-emergence herbicidal activity (percentage phytotoxicity) ECHCG PRE.

Take `Cc1cc(C)c(C2C(=O)CC(CC(=O)NCCF)C2=O)c(C)c1` (stereo not shown) [Compound B61]: the pest or weed control at 250 g/ha in assay [1] (setting [5]) turned out to be 90%; in assay [1] (setting [6]), 90%; in assay [2] (setting [7]), 90%; in assay [2] (setting [8]), 70%; in assay [3] (setting [9]), 80%; in assay [3] (setting [10]) it was 70%. In addition, the pest or weed control at 250 g/ha in assay [4] (setting [11]) and in assay [4] (setting [12]) was 90% throughout.
As to `COc1ccccc1CNC(=O)CC1CC(=O)C(c2c(C)cc(C)cc2C)C1=O` (stereo not shown) [Compound A90], the pest or weed control at 250 g/ha in assay [1] (setting [13]) was 70%; in assay [1] (setting [14]), 60%; in assay [2] (setting [15]), 0%; in assay [2] (setting [16]), 0%; in assay [3] (setting [17]) it was 0%; in assay [3] (setting [18]), 0%. Further, the pest or weed control at 250 g/ha came out at 80% in assay [4] (setting [19]) and 40% in assay [4] (setting [20]).
Take `C/C=C/c1cc(C)c(C2C(=O)CC(CC(=O)NC(C)(C)C)C2=O)c(C)c1` (stereo not shown) [Compound B173]: the pest or weed control at 250 g/ha in assay [1] (setting [21]) was found to be 80%; in assay [1] (setting [22]), 90%; in assay [2] (setting [23]), 80%; in assay [2] (setting [24]), 60%; in assay [3] (setting [25]) it was 90%; in assay [3] (setting [26]) it was 90%. Further, the pest or weed control at 250 g/ha in assay [4] (setting [27]) and in assay [4] (setting [28]) was 90% throughout.
On to `C=CC1(NC(=O)CC2CC(=O)C(c3c(C)cc(C)cc3C)C2=O)CC1` (stereo not shown) [Compound B62], for which the pest or weed control at 250 g/ha in assay [1] (setting [5]) came to 90%; in assay [1] (setting [6]), 90%; in assay [2] (setting [7]) it was 70%; in assay [2] (setting [8]), 40%; in assay [3] (setting [9]), 70%; in assay [3] (setting [10]), 80%. Besides, the pest or weed control at 250 g/ha in assay [4] (setting [11]) was 70%; in assay [4] (setting [12]) it was 90%.
Regarding `C=CCNC(=O)CC1CC(=O)C(c2c(C)cc(/C=C/C)cc2CC)C1=O` (stereo not shown) [Compound B193], the pest or weed control at 250 g/ha is 100% in assay [1] (setting [21]); 100% in assay [1] (setting [22]); 100% in assay [2] (setting [23]); 90% in assay [2] (setting [24]); 100% in assay [3] (setting [25]); 100% in assay [3] (setting [26]). The pest or weed control at 250 g/ha in assay [4] (setting [27]) and in assay [4] (setting [28]) was 100% each time.
Turning to `Cc1cc(-c2ncc(F)cc2F)cc(C)c1C1C(=O)CC(CC(=O)NCc2ccc(C(F)(F)F)cc2)C1=O` (stereo not shown) [Compound B89], the pest or weed control at 250 g/ha was determined as 100% in assay [1] (setting [5]); 90% in assay [1] (setting [6]); 100% in assay [2] (setting [7]); 60% in assay [2] (setting [8]); 100% in assay [3] (setting [9]); 90% in assay [3] (setting [10]). The pest or weed control at 250 g/ha in assay [4] (setting [11]) and in assay [4] (setting [12]) was 100% in each case.
As for `CC#Cc1cc(C)c(C2C(=O)CC(CC(=O)NC(C)(C)CC)C2=O)c(CC)c1` (stereo not shown) [Compound A50], the pest or weed control at 250 g/ha in assay [1] (setting [13]), in assay [1] (setting [14]), in assay [2] (setting [15]), in assay [2] (setting [16]), in assay [3] (setting [17]) and in assay [3] (setting [18]) was 100% in each case. For the same compound, the pest or weed control at 250 g/ha in assay [4] (setting [19]) was determined as 100%; in assay [4] (setting [20]), 90%.
With `Cc1cc(-c2ccc(F)cn2)cc(C)c1C1C(=O)CC(CC(=O)N(C)C(C)C)C1=O` (stereo not shown) [Compound B396], the pest or weed control at 250 g/ha worked out at 90% in assay [1] (post-emergence, 360 h, Rate 250 g/ha, post-emergence, visual assessment 15 DAA, 100%=total damage, 0%=no damage, read-out: Post-emergence herbicidal activity (percentage phytotoxicity) LOLPE POST); 100% in assay [1] (pre-emergence, 480 h, Rate 250 g/ha, pre-emergence, visual assessment 20 DAA, 100%=total damage, 0%=no damage, read-out: Pre-emergence herbicidal activity (percentage phytotoxicity) LOLPE PRE); 100% in assay [2] (post-emergence, 360 h, Rate 250 g/ha, post-emergence, visual assessment 15 DAA, 100%=total damage, 0%=no damage, read-out: Post-emergence herbicidal activity (percentage phytotoxicity) AVEFA POST); 100% in assay [2] (pre-emergence, 480 h, Rate 250 g/ha, pre-emergence, visual assessment 20 DAA, 100%=total damage, 0%=no damage, read-out: Pre-emergence herbicidal activity (percentage phytotoxicity) AVEFA PRE); 90% in assay [3] (post-emergence, 360 h, Rate 250 g/ha, post-emergence, visual assessment 15 DAA, 100%=total damage, 0%=no damage, read-out: Post-emergence herbicidal activity (percentage phytotoxicity) ALOMY POST); 100% in assay [3] (pre-emergence, 480 h, Rate 250 g/ha, pre-emergence, visual assessment 20 DAA, 100%=total damage, 0%=no damage, read-out: Pre-emergence herbicidal activity (percentage phytotoxicity) ALOMY PRE). Besides, the pest or weed control at 250 g/ha was determined as 100% in assay [4] (post-emergence, 360 h, Rate 250 g/ha, post-emergence, visual assessment 15 DAA, 100%=total damage, 0%=no damage, read-out: Post-emergence herbicidal activity (percentage phytotoxicity) ECHCG POST) and 100% in assay [4] (pre-emergence, 480 h, Rate 250 g/ha, pre-emergence, visual assessment 20 DAA, 100%=total damage, 0%=no damage, read-out: Pre-emergence herbicidal activity (percentage phytotoxicity) ECHCG PRE).
